Test systems include NCI/ADR-RES ovarian; SR leukemia; RPMI-8226 leukemia; MALME-3M melanoma; MDA-MB-435; PC-3 prostate; HOP-92 NSCLC; CAKI-1 renal; U251 CNS; OVCAR-4 ovarian.
Common to all, as to assay: NCI anticancer screen, dose series, 48 h

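How tested: cells in 96-well plates exposed to compound for 48 hours at five concentrations. GI50: concentration for 50% inhibition of growth. The concentration for full growth arrest is given as TGI.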

`CC(C)Cc1ccc(C(C)CC2=CCC(CN(C)C)C2=O)cc1` (centres undefined): the TGI in the assay on NCI/ADR-RES ovarian came to 43.7 µM; with SR leukemia it was 3.96 µM; in the assay on RPMI-8226 leukemia, 5.24 µM; in the assay on MALME-3M melanoma, 13.1 µM; with MDA-MB-435, 20.5 µM; in the assay with PC-3 prostate it was 28.4 µM. Besides, the TGI in the assay with HOP-92 NSCLC is 8.41 µM; in the assay with CAKI-1 renal, 3.28 µM; in the assay with U251 CNS it was 13.6 µM; in the assay with OVCAR-4 ovarian it was 41.6 µM.
As for `Cn1cc(-c2ccc3nnc(Sc4ccc5ncccc5c4)n3n2)cn1`, the GI50 in the assay with NCI/ADR-RES ovarian was over 100 µM; with SR leukemia, 68.1 µM; with RPMI-8226 leukemia, 41.2 µM; in the assay on MALME-3M melanoma, over 100 µM; in the assay with MDA-MB-435, over 100 µM; in the assay with PC-3 prostate, over 92.7 µM. The GI50 is 7.07 µM with HOP-92 NSCLC, 40.8 µM with CAKI-1 renal, 28.5 µM with U251 CNS and over 100 µM with OVCAR-4 ovarian. The TGI in the assay on NCI/ADR-RES ovarian, in the assay on SR leukemia, in the assay on RPMI-8226 leukemia, in the assay on MALME-3M melanoma, in the assay on MDA-MB-435 and in the assay on PC-3 prostate was over 100 µM in each case. Moreover, the TGI is over 71.4 µM with HOP-92 NSCLC, over 100 µM in the assay on CAKI-1 renal, over 100 µM with U251 CNS and over 100 µM in the assay on OVCAR-4 ovarian.
Turning to `COc1ccc(-c2nc(-c3nc4ccc(F)cc4[nH]3)c3ccccn23)cc1`, the GI50 in the assay on NCI/ADR-RES ovarian is 6.5 µM; with SR leukemia it was 6.63 µM; in the assay on RPMI-8226 leukemia, 2.86 µM; in the assay with MALME-3M melanoma it was 5.32 µM; with MDA-MB-435 it was 8.05 µM; with PC-3 prostate, 6.14 µM. Moreover, the GI50 with HOP-92 NSCLC is 3.67 µM; with CAKI-1 renal, 12.1 µM; in the assay with U251 CNS, 13.6 µM; with OVCAR-4 ovarian, 6.92 µM. Also, the TGI is 36.5 µM with NCI/ADR-RES ovarian; over 100 µM with SR leukemia; over 100 µM in the assay with RPMI-8226 leukemia; 27.1 µM in the assay on MALME-3M melanoma; over 100 µM with MDA-MB-435; 46.9 µM in the assay on PC-3 prostate. Moreover, the TGI in the assay with HOP-92 NSCLC was 43.8 µM; in the assay with CAKI-1 renal, over 100 µM; in the assay on U251 CNS, 51.3 µM; in the assay with OVCAR-4 ovarian, over 100 µM.
As for `O=P1(S)OC[C@H]2O[C@@H]3[C@H](F)[C@@H]2OP(O)(=S)OC[C@H]2O[C@H]([C@H](F)[C@@H]2O1)n1cnc2c(ncnc21)NC/C=C/CNc1ncnc2c1ncn23` (some centres undefined), the GI50 with NCI/ADR-RES ovarian was over 100 µM; in the assay on SR leukemia it was 0.239 µM; with RPMI-8226 leukemia, over 100 µM; in the assay with MALME-3M melanoma, over 100 µM; in the assay with MDA-MB-435, over 100 µM; with PC-3 prostate, over 100 µM. Moreover, the GI50 in the assay with CAKI-1 renal was over 100 µM; with U251 CNS, over 100 µM; with OVCAR-4 ovarian it was 5.36 µM. In addition, the TGI in the assay with NCI/ADR-RES ovarian, with SR leukemia, in the assay with RPMI-8226 leukemia, in the assay with MALME-3M melanoma, with MDA-MB-435 and in the assay on PC-3 prostate was over 100 µM each time. The TGI in the assay with HOP-92 NSCLC, in the assay with CAKI-1 renal, in the assay on U251 CNS and in the assay with OVCAR-4 ovarian was over 100 µM throughout.
As for `C1CC[N-]CC1.CC(=N\O)/C(C)=N/O.CC(=N\O)/C(C)=N/O.OC1[CH-]CCCC1.[Co+2]`, the GI50 was over 100 µM with NCI/ADR-RES ovarian; 20.5 µM with SR leukemia; 42.4 µM with RPMI-8226 leukemia; 18 µM in the assay with MALME-3M melanoma; 33.9 µM in the assay with MDA-MB-435; 36.6 µM in the assay with PC-3 prostate. The GI50 with HOP-92 NSCLC is 22.2 µM; in the assay with CAKI-1 renal it was 34.7 µM; in the assay with U251 CNS, 31 µM; with OVCAR-4 ovarian, 72.7 µM. Also, the TGI is over 100 µM in the assay with NCI/ADR-RES ovarian; 62.6 µM in the assay with SR leukemia; over 100 µM in the assay on RPMI-8226 leukemia; 40.8 µM with MALME-3M melanoma; over 100 µM with MDA-MB-435; over 100 µM with PC-3 prostate. Moreover, the TGI is 93.1 µM in the assay with HOP-92 NSCLC, over 100 µM with CAKI-1 renal, over 100 µM in the assay with U251 CNS and over 100 µM with OVCAR-4 ovarian.
As for `O=C1CCC(N2C(=O)c3ccccc3C2=O)C(=O)N1` (centres undefined), the TGI with NCI/ADR-RES ovarian, in the assay with SR leukemia, in the assay with RPMI-8226 leukemia, with MALME-3M melanoma, in the assay with MDA-MB-435 and in the assay with PC-3 prostate was over 100 µM each time. For the same compound, the TGI in the assay on HOP-92 NSCLC, in the assay with CAKI-1 renal, in the assay on U251 CNS and in the assay with OVCAR-4 ovarian was over 100 µM in each case.
For the compound `O=C(Oc1ccc(CO[N+](=O)[O-])cc1)c1ccccc1`, the GI50 in the assay on NCI/ADR-RES ovarian was 0.195 µM; with SR leukemia it was 0.115 µM; in the assay with RPMI-8226 leukemia, 0.0912 µM; in the assay with MALME-3M melanoma, 0.123 µM; with MDA-MB-435, 0.157 µM; with PC-3 prostate, 0.13 µM. Besides, the GI50 in the assay on HOP-92 NSCLC is 0.151 µM; in the assay with CAKI-1 renal, 0.163 µM; in the assay with U251 CNS it was 0.145 µM; in the assay on OVCAR-4 ovarian, 0.18 µM. The TGI turned out to be 0.434 µM in the assay with NCI/ADR-RES ovarian; 0.542 µM with SR leukemia; 0.33 µM in the assay with RPMI-8226 leukemia; 0.272 µM in the assay with MALME-3M melanoma; 0.307 µM with MDA-MB-435; 0.301 µM with PC-3 prostate. For the same compound, the TGI was 0.313 µM with HOP-92 NSCLC, 0.308 µM in the assay with CAKI-1 renal, 0.276 µM with U251 CNS and 0.381 µM in the assay with OVCAR-4 ovarian.
`Cc1ccc(S(=O)(=O)c2nc(-c3ccccc3)oc2S(C)=O)cc1` (centres undefined): the GI50 was 2.14 µM with NCI/ADR-RES ovarian; 1.67 µM with SR leukemia; 1.4 µM in the assay on RPMI-8226 leukemia; 1.7 µM in the assay on MALME-3M melanoma; 1.53 µM in the assay on MDA-MB-435; 2.03 µM with PC-3 prostate. The GI50 in the assay with HOP-92 NSCLC was 1.38 µM; with CAKI-1 renal it was 1.5 µM; with U251 CNS it was 1.7 µM; with OVCAR-4 ovarian it was 1.91 µM. Moreover, the TGI with NCI/ADR-RES ovarian came out at 4.89 µM; in the assay on SR leukemia, 7.7 µM; in the assay with RPMI-8226 leukemia, 4.13 µM; with MALME-3M melanoma, 3.47 µM; with MDA-MB-435 it was 3.04 µM; in the assay on PC-3 prostate it was 4.45 µM. Further, the TGI is 2.77 µM in the assay with HOP-92 NSCLC, 2.84 µM in the assay on CAKI-1 renal, 3.17 µM in the assay on U251 CNS and 3.65 µM in the assay with OVCAR-4 ovarian.

The values are drawn from PubChem BioAssay (NCI).
